Assay results: patent US20090264384A1, “INDOLE, BENZIMIDAZOLE, AND BENZOLACTAM BORONIC ACID COMPOUNDS, ANALOGS THEREOF AND METHODS OF USE THEREOF” (Nuada, Inc., priority 2004, published 2009)

Tests used:
TNF-α production by PMBC = experiment: Inhibition of TNF-α Production By Peripheral Blood Monocyte Cells (PMBC), LPS stimulated; assay type: cell-based; conditions: 1 ug/mL LPS, 24 hours
Experimental: PMBC in RPMI 1640 Cell Culture Medium (containing 1% Penicillin and 1% Streptomycin) are aliquoted into 96-well plates at 5×10^5 cells/well and pre-incubated with test compounds for 30 minutes at 37° C. After incubation, 1 ug/mL LPS is added to each well to stimulate TNF-α production and the plate is incubated for 24 hours at 37° C. After incubation, the supernatant is removed and the TNF-α secreted is quantified using EIA detection kits commercially available from R&D Systems (USA). The results from this assay are expressed as percent inhibition of control activity, with the control being stimulated wells with no test compound. Dexamethasone is used as a standard reference compound in the assay and is tested with each experiment. All test compounds are diluted from 10 mM stock solutions in 100% DMSO.

P2Y = P2Y binding assay; set-up: species or system rat; conditions: 1.0E−05 M
Adenylyl cyclase (basal) = Adenylyl cyclase (basal) enzyme assay; assay type: biochemical, rat; conditions: 1.0E−05 M
Estrogen(h) (ER) = molecular target: T1, Estrogen(h) (ER) (Homo sapiens, UniProt P03372); experiment: Estrogen(h) (ER) binding assay; conditions: 1.0E−05 M
T1 construct: Estrogen(h); MCF-7 cells; 17-β-estradiol; Sheen et al. (1985); endogenous in cells; host or cells: MCF-7 cells (cytosol)
T1 sequence (P03372 whole entry): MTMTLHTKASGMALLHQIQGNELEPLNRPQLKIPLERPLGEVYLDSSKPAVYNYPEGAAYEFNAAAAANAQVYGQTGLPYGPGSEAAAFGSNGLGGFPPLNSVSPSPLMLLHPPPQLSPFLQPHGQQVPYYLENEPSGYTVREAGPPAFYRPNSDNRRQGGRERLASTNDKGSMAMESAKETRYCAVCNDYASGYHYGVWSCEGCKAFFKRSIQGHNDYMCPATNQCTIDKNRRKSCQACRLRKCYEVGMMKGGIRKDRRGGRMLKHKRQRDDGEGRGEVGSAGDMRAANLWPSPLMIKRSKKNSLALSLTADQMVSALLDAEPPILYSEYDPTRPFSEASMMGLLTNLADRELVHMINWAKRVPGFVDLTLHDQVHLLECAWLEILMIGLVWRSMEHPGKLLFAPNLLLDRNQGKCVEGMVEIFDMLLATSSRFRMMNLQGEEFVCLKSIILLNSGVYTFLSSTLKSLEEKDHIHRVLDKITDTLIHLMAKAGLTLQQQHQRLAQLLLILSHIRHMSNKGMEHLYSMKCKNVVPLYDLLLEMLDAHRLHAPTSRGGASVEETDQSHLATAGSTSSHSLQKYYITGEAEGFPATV

Choline transporter = molecular target: T2, Choline transporter (Rattus norvegicus, UniProt Q9JMD7); experiment: Choline transporter binding assay; conditions: 1.0E−05 M; read-out: % Inhibition of Control Specific Binding
T2 construct: rat striatum; from tissue; host or cells: rat striatum
T2 sequence (Q9JMD7 1-580): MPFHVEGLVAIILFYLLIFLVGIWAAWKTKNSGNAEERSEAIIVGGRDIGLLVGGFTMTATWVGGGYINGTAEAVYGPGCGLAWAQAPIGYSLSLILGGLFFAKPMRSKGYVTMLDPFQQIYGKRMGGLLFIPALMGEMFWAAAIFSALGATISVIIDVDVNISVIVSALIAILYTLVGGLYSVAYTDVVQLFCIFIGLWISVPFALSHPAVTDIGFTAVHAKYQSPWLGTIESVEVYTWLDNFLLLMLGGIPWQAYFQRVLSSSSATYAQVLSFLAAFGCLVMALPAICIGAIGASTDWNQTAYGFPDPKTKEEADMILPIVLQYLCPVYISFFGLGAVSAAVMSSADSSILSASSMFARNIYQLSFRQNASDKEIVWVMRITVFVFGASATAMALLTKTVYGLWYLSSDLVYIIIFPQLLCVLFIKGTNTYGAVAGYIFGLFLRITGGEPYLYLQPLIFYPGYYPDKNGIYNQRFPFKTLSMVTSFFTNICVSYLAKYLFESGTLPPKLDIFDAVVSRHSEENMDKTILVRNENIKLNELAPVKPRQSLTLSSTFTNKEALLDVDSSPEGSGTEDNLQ

Glucocorticoid(h) (GR) = molecular target: T3, Glucocorticoid(h) (GR) (Homo sapiens, UniProt P04150); experiment: Glucocorticoid(h) (GR) binding assay; conditions: 1.0E−05 M; read-out: % Inhibition of Control Specific Binding
T3 construct: Glucocorticoid(h); IM-9 cells; dexamethasone; Clark et al. (1996); endogenous in cells; host or cells: IM-9 cells (cytosol)
T3 sequence (P04150 whole entry): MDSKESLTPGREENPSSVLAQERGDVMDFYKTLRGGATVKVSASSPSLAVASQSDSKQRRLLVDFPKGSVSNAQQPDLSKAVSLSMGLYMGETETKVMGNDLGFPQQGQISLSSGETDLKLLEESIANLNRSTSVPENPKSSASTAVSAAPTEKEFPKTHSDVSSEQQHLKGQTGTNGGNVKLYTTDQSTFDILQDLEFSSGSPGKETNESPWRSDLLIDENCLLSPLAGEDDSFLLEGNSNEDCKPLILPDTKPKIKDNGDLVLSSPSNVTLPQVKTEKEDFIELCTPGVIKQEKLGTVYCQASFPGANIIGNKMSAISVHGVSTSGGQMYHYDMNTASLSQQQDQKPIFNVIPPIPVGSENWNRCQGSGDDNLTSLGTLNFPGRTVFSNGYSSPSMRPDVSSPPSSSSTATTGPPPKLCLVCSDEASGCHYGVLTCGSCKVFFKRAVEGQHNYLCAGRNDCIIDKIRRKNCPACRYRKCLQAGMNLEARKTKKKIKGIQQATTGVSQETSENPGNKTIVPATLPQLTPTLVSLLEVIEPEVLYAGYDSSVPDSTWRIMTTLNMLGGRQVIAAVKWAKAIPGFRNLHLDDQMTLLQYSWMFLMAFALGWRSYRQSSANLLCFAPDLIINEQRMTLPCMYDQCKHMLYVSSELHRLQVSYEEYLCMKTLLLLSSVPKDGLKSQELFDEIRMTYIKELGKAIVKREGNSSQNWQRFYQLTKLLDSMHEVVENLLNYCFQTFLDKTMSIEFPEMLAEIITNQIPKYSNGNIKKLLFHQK

[1] = tested on: Ca^2+ channel (L, verapamil site) (phenylalkylamines); experiment: Ca^2+ channel (L, verapamil site) binding assay; set-up: species or system rat; conditions: 1.0E−05 M
Protein kinase C = Protein kinase C enzyme assay; assay type: biochemical, rat; conditions: 1.0E−05 M
NK2(h) = molecular target: T4, NK2(h) (Homo sapiens, UniProt P21452); experiment: NK2(h) binding assay; conditions: 1.0E−05 M; read-out: % Inhibition of Control Specific Binding
T4 construct: expressed in transfected cells; host or cells: CHO cells
T4 sequence (P21452 whole entry): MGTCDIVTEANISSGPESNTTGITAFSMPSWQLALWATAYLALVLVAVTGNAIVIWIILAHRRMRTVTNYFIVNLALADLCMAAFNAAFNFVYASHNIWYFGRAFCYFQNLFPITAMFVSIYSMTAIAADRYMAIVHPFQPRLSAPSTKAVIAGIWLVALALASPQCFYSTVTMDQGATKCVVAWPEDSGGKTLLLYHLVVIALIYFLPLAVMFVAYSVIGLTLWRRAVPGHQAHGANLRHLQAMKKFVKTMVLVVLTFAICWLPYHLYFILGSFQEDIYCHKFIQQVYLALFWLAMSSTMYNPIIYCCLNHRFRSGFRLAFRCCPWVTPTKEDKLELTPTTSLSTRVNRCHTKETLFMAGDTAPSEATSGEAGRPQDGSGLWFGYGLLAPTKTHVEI

[2] = tested on: colitis provoked by trinitrobenzene sulphonic acid (TNBS); experiment: Rat model of colitis provoked by TNBS, 3 days, treatment from Day −1 (CCI-7308); assay type: in vivo; conditions: vs CMC group
Source text: In the study, colonic macroscopic injury has been assessed, as has colonic weight as a reflection of colonic oedema, along with determination of MPO activity (Bradley et al, 1982) as an index of white cell infiltration for the evaluation of tissue injury. The methods and protocol used were substantially similar to those in Example 39, with some differences described below. TNBS Challenge—Male Wistar rats (270-330 g) were randomised into groups of 10-11 before commencement of the study. The following primary parameters were measured in the study: In addition, the weight of the colonic segment was assessed as an indirect and non-specific marker of oedema. The body weight of the animals was also determined and expressed as % change from the day of challenge. Treatments. All challenged groups were dosed orally twice daily from Day −1. The groups for study were: Colon homogenates for cytokine measurements. […] Tissue homogenates were lysed for 30 min. on ice, and then centrifuged (10 min., 14, 000×g). The aliquots of the supernatant were stored at −20° C. until use (Ten Hove et al., 2001). Tumour Necrosis Factor-a Activity. The TNF-α levels were determined with quantitative TNF-α solid-phase Enzyme Linked ImmunoSorbent Assay (ELISA), which is based on the sandwich principle (HyCult biotechnology b. V;. Cat number: […] At the end of the ELISA assay, the samples were measured spectrophotometrically (Benchmark Microplate reader, Bio-Rad Lab; λ=450 nm). The samples were diluted 2 or 4 times with the sample buffer included in the kit. The TNF-α values were expressed as pg/mg protein. This commercially available kit (Hycult Biotechnology b.v. Uden, The Netherlands. Catalogue number: […]

[3] = 50 mg/kg/day p.o. in divided doses

Row | SMILES | IC50 (TNF-α production by PMBC) [nM] | % Inhibition of Control Specific Binding (P2Y) [%] | % Stimulation Relative to Control (Adenylyl cyclase (basal)) [%] | % Inhibition of Control Specific Binding (Estrogen(h) (ER)) [%] | inhibition at 10 µM (Choline transporter) [%] | inhibition at 10 µM (Glucocorticoid(h) (GR)) [%] | % Inhibition of Control Specific Binding [1] [%] | % Inhibition of Control Values (Protein kinase C) [%] | inhibition at 10 µM (NK2(h)) [%] | attenuation of TNBS-induced fall in body weight (% change in body weight at Day 0) ([2]; 50 mg/kg/day p.o. in divided doses b.i.d.) | reduction in area of macroscopic colonic injury ([2]; 50 mg/kg/day p.o. in divided doses, 72 h after TNBS) | reduction in colon weight [2, 3] | reduction in colonic MPO activity [2, 3] | reduction in colonic TNF-α levels [2, 3]
1 | N#Cc1ccc2c(ccn2CCCCCB(O)O)c1 [Example 20, 5-(5-cyano-1H-indol-1-yl)pentylboronic acid] | 750 | −19 | −3 | 3 | 1 | -7 | −12 | 0 | -2 |  |  |  |  | 
2 | O=C(O)c1cc(/N=N/c2ccc(S(=O)(=O)Nc3ccccn3)cc2)ccc1O [sulfasalazine, reference compound] |  |  |  |  |  |  |  |  |  | reached statistical significance at Day 1, 2 and 3 | significantly (P<0.001) reduced the extent of macroscopic injury | significant (P<0.05) reduction in colon weight | significantly reduced the elevated colonic levels of MPO | significantly reduced the elevated colonic levels of TNF-α
